Key:
[1] = target: recombinant human PARP (Homo sapiens, UniProt P09874); assay: PARP inhibitory activity (in vitro assay); assay type: biochemical; details: 32P-NAD, 15 minutes at room temperature
Protocol: B. PARP Inhibitory Activity (In Vitro Assay)
The recombinant human PARP (5.3 mg protein/ml) were incubated with a test compound in a 100 μl reaction buffer containing the indicated concentration of 1 mCi/ml ^32P-NAD, 50 mM Tris-HCl, 25 mM MgCl2, 1 mM DTT (dithiothreitol), 0.05 mM NAD (nicotinamido adenine dinucleotide), 1 mg/ml activated DNA, pH8.0. Incubation was for 15 minutes at a room temperature and the reaction was stopped by the addition of 200 μl of ice-cold 20% tricholoroacetic acid followed by rapid filtration through GF/B filters. The filters were treated with scintillation fluid and acid-insoluble counts were measured for quantification of unit activity.
PARP inhibitory activity (%)=[1-(enzyme activity with test compound)/(enzyme activity with vehicle)]×100

[2] = test system: Mice MPTP(N-methyl-1,2,3,6-tetrahydropyridine)-induced Parkinson's model; assay: Effect on the level of striatal dopamine and its metabolite in mice MPTP-induced Parkinson's model; assay type: in vivo; details: 32 mg/kg, two i.p. injections, four days after last MPTP, *P < 0.05 vs MPTP
Protocol: C. Effect of Test Compound on the Level of Striatal Dopamine and its Metabolite in Mice MPTP([…])-induced Parkinson's model
Mice received four i.p. injections of MPTP-HCl (20 mg/kg) in saline at 2 hours intervals and two i.p. injections of Test compound at 30 minutes before 1st injection and 3rd injection of MPTP.
Four days after the last MPTP injection, mice were sacrificed, brains were quickly removed, and striata were dissected out on an ice-cold glass Petri dish. Samples were homogenized in a buffer of 0.1M perchloric acid containing isoproterenol as internal standard. HPLC with electrochemical detection was used to measure striatal levels of DA (dopamine), DOPAC (dihydroxyphenylacetic acid) and HVA (homovanilic acid).
The level of DA, DOPAC and HVA were expressed as a percentage of Normal taken as the 100%.

Sequence of recombinant human PARP (P09874 whole entry): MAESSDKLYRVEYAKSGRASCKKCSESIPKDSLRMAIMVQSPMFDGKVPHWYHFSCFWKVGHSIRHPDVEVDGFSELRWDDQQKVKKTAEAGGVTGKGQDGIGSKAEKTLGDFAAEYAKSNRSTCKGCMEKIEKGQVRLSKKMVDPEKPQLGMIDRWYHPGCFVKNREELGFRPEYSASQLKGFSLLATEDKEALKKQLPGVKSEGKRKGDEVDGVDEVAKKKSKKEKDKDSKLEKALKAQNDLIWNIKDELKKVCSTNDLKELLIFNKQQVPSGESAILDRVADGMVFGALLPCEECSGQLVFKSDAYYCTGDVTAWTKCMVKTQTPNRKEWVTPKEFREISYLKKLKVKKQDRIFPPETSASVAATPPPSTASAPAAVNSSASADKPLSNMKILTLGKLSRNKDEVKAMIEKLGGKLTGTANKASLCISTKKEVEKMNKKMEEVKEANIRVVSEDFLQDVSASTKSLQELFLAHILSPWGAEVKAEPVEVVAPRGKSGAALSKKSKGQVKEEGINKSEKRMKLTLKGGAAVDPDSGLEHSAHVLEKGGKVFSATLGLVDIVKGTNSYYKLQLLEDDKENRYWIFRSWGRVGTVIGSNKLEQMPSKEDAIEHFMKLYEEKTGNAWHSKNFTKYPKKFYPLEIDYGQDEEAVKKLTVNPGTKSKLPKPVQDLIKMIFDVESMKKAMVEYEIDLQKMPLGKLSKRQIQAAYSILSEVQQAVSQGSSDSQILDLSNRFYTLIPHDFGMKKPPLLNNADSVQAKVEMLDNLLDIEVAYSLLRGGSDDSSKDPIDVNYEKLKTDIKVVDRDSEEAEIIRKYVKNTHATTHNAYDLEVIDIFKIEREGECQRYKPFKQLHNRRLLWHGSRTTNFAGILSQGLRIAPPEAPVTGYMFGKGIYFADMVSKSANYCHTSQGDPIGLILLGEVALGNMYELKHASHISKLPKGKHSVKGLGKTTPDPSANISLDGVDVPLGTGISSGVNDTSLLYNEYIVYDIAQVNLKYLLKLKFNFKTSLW

| Compound | IC50 [1] [nM] | Dopamine levels ([2]; striatal DA as percentage of Normal (100%)) | DOPAC levels ([2]; striatal DOPAC as percentage of Normal (100%)) | HVA levels ([2]; striatal HVA as percentage of Normal (100%)) |
| --- | --- | --- | --- | --- |
| O=c1[nH]c(CCCN2CC=C(c3ccccc3)CC2)nc2cccc(Cl)c12 [Compound A, 5-chloro-2-[3-(4-phenyl-3,6-dihydro-1(2H)-pyridinyl)propyl]-4(3H)-quinazolinone] | < 500 | 59* % | 58* % | 64* % |
| O=c1[nH]c(/C=C/CN2CC=C(c3ccc(F)cc3)CC2)nc2c(Cl)cccc12 [Compound B, 8-chloro-2-{(1E)-3-[4-(4-fluorophenyl)-3,6-dihydro-1(2H)-pyridinyl]-1-propenyl}-4(3H)-quinazolinone] | < 500 | – | – | – |
| O=c1[nH]c(CCCN2CC=C(c3ccncc3)CC2)nc2c(Cl)cccc12 [Compound C, 8-Chloro-2-{[4-(4-pyridinyl)-3,6-dihydro-1(2H)-pyridinyl]propyl}-4(3H)-quinazolinone] | < 500 | – | – | – |
| Cc1cccc2c(=O)[nH]c(CCCN3CCc4c([nH]c5ccccc45)C3)nc12 [Compound D, 8-methyl-2-[3-(1,3,4,9-tetrahydro-2H-pyrido[3,4-b]indol-2-yl)propyl]-4(3H)-quinazolinone] | < 500 | – | – | – |
